“Also recorded” adds a separate entry of the source. Like-named read-outs stand apart in the source and are kept apart here.
Columns and labels:
Assay type in all cases: cell-based, human
PER.C6 cells [1] = assay: PER.C6 cell growth in AEM with single trace elements added at low concentration (Example 2, FIG. 01); conditions: for effect on PER.C6 cell growth: element added singly to AEM: nickel (nitrate) 0.004 mg/L, cobalt (chloride) 0.001 mg/L, manganese (chloride) 0.028 mg/L, copper (chloride) 0.013 mg/L, compared to control
PER.C6 cells [2] = assay: Lag in the subsequent culture when PER.C6 cells are passaged from overgrown high-density cultures in AEM; conditions: for high density culturing / passaging of cells from high-density cultures: PER.C6 cells in AEM, cultures above 2×10^6 vc/mL
PER.C6 cells [3] = assay: PER.C6 cell growth after adding cobalt, nickel and manganese to AEM supplemented with TEM-2 (Example 5, FIG. 04)
PER.C6 cells [4] = assay: PER.C6 growth in AEM supplemented with TEM, TEM without zinc or zinc alone (Example 1 and preliminary work); conditions: zinc evaluated separately
From the text: A trace element mix (TEM) was created and used in various test protocols. […] The following media supplements were compared: • 1) TEM. • 2) TEM without zinc. • 3) Zinc alone at the TEM concentration. • 4) These supplements were each added to individual bottles of AEM at 1×, 3×, 5× and 10×. The conditions were then monitored by observing PER.C6 growth. […] Two of the components in TEM, Cu and Ni would individual be toxic at the 10× levels. These levels of trace elements would have been observed in the preliminary variable observations. Thus it was decided that total trace element concentrations were not responsible for the deleterious effects observed.

[Cl][Cu][Cl] [copper, copper (chloride)]
duration of log growth phase (PER.C6 cells [1]; 0.013 mg/L copper in AEM, all other cultures entered lag phase after day four or five): continued in the log growth phase through day six
effect on PER.C6 cell growth (PER.C6 cells [1]): best results of all conditions tested; also recorded: extends log phase growth
effect on PER.C6 cell growth (PER.C6 cells [1]; listed as Copper): increase growth
high density culturing / passaging of cells from high-density cultures (PER.C6 cells [2]): does not improve passaging

[Cl][Co][Cl] [cobalt, cobalt (chloride)]
effect on PER.C6 cell growth performance (PER.C6 cells [3]): no effect

[Cl][Mn][Cl] [manganese, manganese (chloride)]
effect on PER.C6 cell growth (PER.C6 cells [1]): inhibits; also recorded: individually toxic
effect on PER.C6 cell growth performance (PER.C6 cells [3]; added to AEM supplemented with TEM-2, same concentrations as in example 2): no effect

[Zn] [Zinc]
overall cell growth (PER.C6 cells [4]): improve overall cell growth
high density culturing / passaging of cells from high-density cultures (PER.C6 cells [2]): consistent high density culturing
lag in the subsequent culture (PER.C6 cells [2]; passaged from overgrown day 5 cultures, AEM): did not lag
